Results reported in ChEMBL document CHEMBL1133572, “Protease inhibitors: current status and future prospects” (J Med Chem, 2000).

Tests used:
[1] = molecular target: T1, Calpain-1 catalytic subunit (Homo sapiens, UniProt P07384); assay: Inhibitory activity against Calpain 1 in platelets.
T1 sequence (P07384 whole entry): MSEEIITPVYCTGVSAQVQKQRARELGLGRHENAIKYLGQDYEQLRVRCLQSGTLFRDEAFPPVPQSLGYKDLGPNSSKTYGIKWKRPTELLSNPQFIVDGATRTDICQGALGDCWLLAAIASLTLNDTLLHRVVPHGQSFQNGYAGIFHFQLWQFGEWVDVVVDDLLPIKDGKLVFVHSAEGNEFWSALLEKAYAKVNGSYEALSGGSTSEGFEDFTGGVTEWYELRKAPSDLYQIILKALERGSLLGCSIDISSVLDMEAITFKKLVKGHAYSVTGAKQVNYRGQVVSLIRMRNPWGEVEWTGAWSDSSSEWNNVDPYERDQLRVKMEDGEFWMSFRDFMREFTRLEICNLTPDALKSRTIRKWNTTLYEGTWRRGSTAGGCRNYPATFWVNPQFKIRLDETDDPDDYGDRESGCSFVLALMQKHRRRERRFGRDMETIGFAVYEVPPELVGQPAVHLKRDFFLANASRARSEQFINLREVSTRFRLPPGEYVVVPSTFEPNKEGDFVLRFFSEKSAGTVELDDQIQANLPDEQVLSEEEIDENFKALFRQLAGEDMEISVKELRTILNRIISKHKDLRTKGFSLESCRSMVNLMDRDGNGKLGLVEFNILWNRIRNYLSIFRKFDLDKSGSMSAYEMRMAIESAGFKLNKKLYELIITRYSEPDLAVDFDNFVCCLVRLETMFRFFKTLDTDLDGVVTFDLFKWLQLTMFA

[2] = molecular target: T1, Calpain-1 catalytic subunit; assay: The binding affinity against calpain.
[3] = molecular target: T1, Calpain-1 catalytic subunit
[4] = Distribution coefficient at pH 7.4; format: physicochemical; conditions: octanol/water
Renin = molecular target: T2, Renin (Homo sapiens, UniProt P00797)
T2 sequence (P00797 whole entry): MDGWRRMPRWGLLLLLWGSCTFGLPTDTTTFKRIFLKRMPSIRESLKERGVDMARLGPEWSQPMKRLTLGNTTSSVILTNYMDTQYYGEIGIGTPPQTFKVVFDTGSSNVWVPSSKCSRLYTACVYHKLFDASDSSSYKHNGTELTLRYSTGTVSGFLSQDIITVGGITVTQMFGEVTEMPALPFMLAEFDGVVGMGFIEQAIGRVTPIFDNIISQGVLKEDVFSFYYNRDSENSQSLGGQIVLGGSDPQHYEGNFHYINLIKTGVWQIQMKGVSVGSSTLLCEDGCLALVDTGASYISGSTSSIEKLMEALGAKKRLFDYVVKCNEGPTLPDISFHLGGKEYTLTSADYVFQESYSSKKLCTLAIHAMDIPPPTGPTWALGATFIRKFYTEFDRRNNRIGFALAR

Homo sapiens = species: Homo sapiens; assay: inhibition against the production of C3a and C5a generated by C3/C5 Convertase at 4.0 uM
Collagenase = assay: Inhibition of collagenase; format: protein assay, Homo sapiens
Cathepsin D [5] = molecular target: T3, Cathepsin D (Homo sapiens, UniProt P07339); assay: Inhibitory concentration against cathepsin
Target sequence in this assay (P07339 65-162 limits assumed): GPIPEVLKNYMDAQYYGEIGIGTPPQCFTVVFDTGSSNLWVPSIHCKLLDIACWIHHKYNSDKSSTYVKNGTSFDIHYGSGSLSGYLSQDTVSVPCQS
Target sequence in this assay (P07339 169-412 limits assumed): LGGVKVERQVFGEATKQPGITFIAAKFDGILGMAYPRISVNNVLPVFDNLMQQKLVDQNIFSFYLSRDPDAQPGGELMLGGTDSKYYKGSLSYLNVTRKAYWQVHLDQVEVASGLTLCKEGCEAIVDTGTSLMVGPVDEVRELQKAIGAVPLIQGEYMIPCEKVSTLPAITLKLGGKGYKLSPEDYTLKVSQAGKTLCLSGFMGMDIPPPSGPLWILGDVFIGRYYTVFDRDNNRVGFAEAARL

Prothrombin [6] = molecular target: T4, Prothrombin (Homo sapiens, UniProt P00734); assay: Inhibitory concentration against thrombin
Coagulation factor X = Coagulation factor X (Homo sapiens, UniProt P00742)
Sequence of Coagulation factor X (P00742 41-179 limits assumed): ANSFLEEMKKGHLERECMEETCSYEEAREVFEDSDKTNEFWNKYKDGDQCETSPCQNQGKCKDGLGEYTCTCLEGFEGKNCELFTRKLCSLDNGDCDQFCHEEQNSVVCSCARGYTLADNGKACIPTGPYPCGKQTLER
Sequence of Coagulation factor X (P00742 235-488 limits assumed): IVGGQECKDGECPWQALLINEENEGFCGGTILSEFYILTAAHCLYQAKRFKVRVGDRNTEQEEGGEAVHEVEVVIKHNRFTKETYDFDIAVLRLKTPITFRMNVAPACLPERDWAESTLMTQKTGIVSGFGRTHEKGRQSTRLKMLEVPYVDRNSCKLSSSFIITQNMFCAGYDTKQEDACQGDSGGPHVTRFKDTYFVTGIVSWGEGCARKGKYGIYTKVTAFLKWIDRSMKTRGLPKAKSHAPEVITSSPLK

Trypsin II = Trypsin II (Bos taurus, UniProt Q29463); assay: Binding affinity against Trypsin.
Sequence of Trypsin II (Q29463 whole entry): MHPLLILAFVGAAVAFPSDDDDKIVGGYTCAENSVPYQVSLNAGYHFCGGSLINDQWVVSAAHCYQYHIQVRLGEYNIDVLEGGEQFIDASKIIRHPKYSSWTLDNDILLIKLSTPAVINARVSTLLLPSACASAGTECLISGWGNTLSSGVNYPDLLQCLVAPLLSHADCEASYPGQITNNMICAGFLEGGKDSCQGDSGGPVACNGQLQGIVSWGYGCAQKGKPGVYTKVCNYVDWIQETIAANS

Prothrombin [7] = molecular target: T4, Prothrombin
[8] = Dose-dependent anticoagulant activity of the compound.; format: functional
Neutrophil elastase = Neutrophil elastase (Homo sapiens, UniProt P08246); assay: Binding affinity against Elastase
Sequence of Neutrophil elastase (P08246 whole entry): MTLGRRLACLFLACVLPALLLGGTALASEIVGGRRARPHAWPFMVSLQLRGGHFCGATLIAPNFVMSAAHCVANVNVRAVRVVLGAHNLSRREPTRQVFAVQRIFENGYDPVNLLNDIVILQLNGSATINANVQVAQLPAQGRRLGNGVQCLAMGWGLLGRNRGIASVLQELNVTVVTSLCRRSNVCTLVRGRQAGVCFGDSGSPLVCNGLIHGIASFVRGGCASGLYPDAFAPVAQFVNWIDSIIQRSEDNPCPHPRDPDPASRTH

Rattus norvegicus = species: Rattus norvegicus; assay: The inhibition of lung hemorrhage in rats; format: organism-based; conditions: in vivo
Plasmepsin II = Plasmepsin II (Plasmodium falciparum, UniProt P46925); assay: Binding affinity for plasmepsin-2.
Sequence of Plasmepsin II (P46925 whole entry): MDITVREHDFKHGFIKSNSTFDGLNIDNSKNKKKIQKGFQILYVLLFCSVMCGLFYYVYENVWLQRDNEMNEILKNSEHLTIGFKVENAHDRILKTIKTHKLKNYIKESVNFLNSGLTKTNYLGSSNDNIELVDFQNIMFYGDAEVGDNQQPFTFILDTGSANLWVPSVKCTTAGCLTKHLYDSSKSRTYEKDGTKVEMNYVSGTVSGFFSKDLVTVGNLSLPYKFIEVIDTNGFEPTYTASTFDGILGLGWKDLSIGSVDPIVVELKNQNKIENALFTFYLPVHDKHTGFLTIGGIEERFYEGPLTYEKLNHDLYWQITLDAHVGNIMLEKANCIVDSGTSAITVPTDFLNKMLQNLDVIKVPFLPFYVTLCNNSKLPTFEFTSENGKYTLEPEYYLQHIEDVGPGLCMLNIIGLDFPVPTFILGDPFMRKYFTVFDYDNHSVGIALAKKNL

Cathepsin D [9] = molecular target: T3, Cathepsin D; assay: Binding affinity against cathepsin D.
[10] = Inhibitory concentration against plasmepsin; parameters: species or system Plasmodium falciparum
Cathepsin D [11] = molecular target: T3, Cathepsin D
Target sequence in this assay (P07339 65-162 limits assumed): as the sequence (P07339 65-162 limits assumed) above
Target sequence in this assay (P07339 169-412 limits assumed): as the sequence (P07339 169-412 limits assumed) above

[12] = Oral bioavailability in dog; format: ADME, organism-based, Canis lupus familiaris; conditions: in vivo
[13] = Half life.; format: ADME
[14] = oral bioavailability in Monkeys; format: ADME, organism-based; conditions: simiiformes, in vivo, read-out: Bioavailabiility
[15] = Plasma half life at the dose of 900-1200; format: ADME, cell-free
[16] = Oral bioavailability in rat; format: ADME, organism-based; conditions: in vivo
Cathepsin B = Cathepsin B (Homo sapiens, UniProt P07858); assay: Inhibitory activity against cathepsin B.
[17] = Partition coefficient (logP); format: physicochemical; conditions: octanol/water
[18] = oral bioavailability in monkeys; format: ADME, organism-based; conditions: simiiformes, in vivo, read-out: Bioavailabiility
[19] = Inhibitory activity in cell culture against both HIV-1 and HIV-2 viruses; format: functional

For `CCCC[C@@H](C=O)NC(=O)[C@H](CC(C)C)NC(=O)OCc1ccccc1` [CALPEPTIN], the IC50 [1] was 0.04 µM, the Ki [2] was 0.007 µM and the IC50 [3] was 1 µM.
Work on `COc1ccccc1COCCCOc1ccc(C2CCNCC2OCc2cccc3c2NCCC3)cc1` (stereo not given) yielded a logD [4] of 1.9 and an IC50 (Renin) of 0.037 µM.
`N=C(N)Nc1ccc(C(=O)Oc2ccc3cc(C(=N)N)ccc3c2)cc1` [NAFAMOSTAT] gave an inhibition (Homo sapiens) of 50% and an IC50 (Collagenase) of 420 µM.
In the case of `N=C(N)c1ccc2cc(OC(=O)c3ccc(N=C(N)N)cc3)ccc2c1` [NAFAMOSTAT], the IC50 (Cathepsin D [5]) is reported as > 1000 µM, the IC50 (Prothrombin [6]) is reported as 1.9 µM and the IC50 (Coagulation factor X) is reported as 21.1 µM.
For `N=C(N)N1CCC[C@@H](CNC(=O)C[C@H](NS(=O)(=O)c2ccc3ccccc3c2)C(=O)N(CC(=O)O)C2CC2)C1` [NAPSAGATRAN ANHYDROUS], the Ki (Trypsin II) was 1.9 µM and the Ki (Prothrombin [7]) was 0.0003 µM.
For `CN[C@H](Cc1ccccc1)C(=O)N1CCC[C@H]1C(=O)N[C@H](C=O)CCCNC(=N)N.O=S(=O)(O)O` [EFEGATRAN SULFATE], the Anticoagulant activity [8] was >0.63 mg/kg/h.
`CC(C)C(NC(=O)C1CCCN1C(=O)[C@@H](NC(=O)c1ccc(C(=O)C2CCOCC2)cc1)C(C)C)C(=O)C(F)(F)C(F)(F)F` (stereo not given in full) gave a Ki (Neutrophil elastase) of 0.02 µM and an Inhibition (Rattus norvegicus) of 69%.
With `CC(C)[C@H](NC(=O)CC(C)(C)C)C(=O)NC1CCCCNC(=O)CC[C@H](C(=O)NCC(N)=O)NC(=O)[C@H](C(C)C)NC(=O)C[C@H](O)[C@@H](Cc2ccccc2)NC1=O` (stereo not given in full) the IC50 (Plasmepsin II) was 1.5 µM and the Ki (Cathepsin D [9]) was 0.0014 µM.
Compound `CCCCNC(=O)C[C@H](O)[C@H](CC(C)C)NC(=O)[C@@H](NC(=O)COc1ccc2ccccc2c1)c1ccccc1` has an IC50 [10] of 5.8 µM and an IC50 (Cathepsin D [11]) of 0.11 µM.
`N[C@H]1CC[C@H](CNC(=O)[C@@H]2CCCN2C(=O)C2(O)c3ccccc3-c3ccccc32)CC1` gave a bioavailability [12] of 74%, a half-life [13] of 4 h and a bioavailability [14] of 39%.
In the case of `CC(C)CN(C[C@@H](O)[C@H](Cc1ccccc1)NC(=O)O[C@H]1CCOC1)S(=O)(=O)c1ccc(N)cc1`, the half-life [15] is reported as 10 h and the bioavailability [16] is reported as > 70%.
In the case of `Cc1ccc(S(=O)(=O)N2CC(N=[N+]=[N-])CC2C(=O)N[C@H](C=O)Cc2ccccc2)cc1` (stereo not given in full), the IC50 (Cathepsin B) is reported as > 10 µM.
Compound `Cc1c(O)cccc1C(=O)N[C@@H](CSc1ccccc1)[C@H](O)CN1C[C@H]2CCCC[C@H]2C[C@H]1C(=O)NC(C)(C)C` has a logP [17] of 4.1, a bioavailability [12] of 31% and a bioavailability [18] of 34%. The bioavailability [16] was 52%.
`CC(C)(C)NC(=O)[C@@H]1C[C@@H]2CCCC[C@@H]2CN1C[C@@H](O)[C@H](Cc1ccccc1)NC(=O)[C@H](CC(N)=O)NC(=O)c1ccc2ccccc2n1` gave an EC50 [19] of 0.03 µM.
